Experimental data published in patent US20210395313A1, “PEPTIDE PAC1 ANTAGONISTS” (AMGEN INC., priority 2017, published 2021).
Where a SMILES comes first, the peptide text is derived from it. Bridges are numbered along the chain shown (N, C = ends).

Assays:
[1] = biological target: T1, rat PAC1 receptor (Rattus norvegicus, UniProt P32215); test: LANCE Ultra cAMP accumulation antagonist assay in RG-2 cells; assay type: cell-based;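 note: RG-2 rat glioma cells endogenously expressing PAC1, test peptide preincubated 30 min, then PAC1 agonist added at its EC80 for 15 min, cAMP accumulation read by LANCE Ultra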
T1 construct: SHSY-5Y (human neuroblastoma cell line) and RG-2 (rat glioma cell line) cells endogenously express human and rat PAC1 receptors, respectively; endogenous in cells; host or cells: RG-2 rat glioma cells
T1 sequence (P32215 20-523): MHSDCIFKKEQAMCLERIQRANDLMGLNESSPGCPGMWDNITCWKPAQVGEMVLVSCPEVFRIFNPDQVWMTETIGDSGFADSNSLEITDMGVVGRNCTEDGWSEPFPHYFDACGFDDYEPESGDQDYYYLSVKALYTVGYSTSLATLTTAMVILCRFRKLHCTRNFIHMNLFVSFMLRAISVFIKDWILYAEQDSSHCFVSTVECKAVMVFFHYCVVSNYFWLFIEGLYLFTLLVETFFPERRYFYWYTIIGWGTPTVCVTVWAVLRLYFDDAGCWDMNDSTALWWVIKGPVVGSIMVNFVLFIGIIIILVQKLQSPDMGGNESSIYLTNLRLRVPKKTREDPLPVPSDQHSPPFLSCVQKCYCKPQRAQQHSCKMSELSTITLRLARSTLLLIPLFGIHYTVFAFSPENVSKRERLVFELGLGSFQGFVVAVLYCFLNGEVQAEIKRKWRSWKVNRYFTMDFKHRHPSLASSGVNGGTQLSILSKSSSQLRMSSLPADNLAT
Description: In order to determine the potency of peptide antagonists at the PAC1 receptor, functional cAMP accumulation assays using LANCE Ultra cAMP assay kit to measure the agonist and antagonist activity of PAC1 peptides were used. SHSY-5Y (human neuroblastoma cell line) and RG-2 (rat glioma cell line) cells endogenously express human and rat PAC1 receptors, respectively. Agonist activity of PAC1 peptides was tested by incubating with SHSY-5Y at 2,000 cells per well or RG-2 at 5,000 cells per well for 15 minutes at room temperature. PAC1 receptor agonist PACAP38 or maxadilan was included as a positive control. The reaction was stopped by adding detection mixture, europium (Eu) chelate-labeled cAMP tracer and cAMP-specific monoclonal antibodies labeled with the ULight™ dye, to all wells followed by a 60-minute incubation at room temperature. The assay plates were then read on an EnVision instrument at an emission wavelength of 665 and 615 nm and data were analyzed using Genedata Screener or GraphPad Prism software. A similar procedure was used in the antagonist assays by using a fixed concentration of PAC1 agonist. The concentrations of agonists were chosen based on their ECK) values at PAC1 receptors in SHSY-5Y or RG-2 cells. SHSY-5Y or RG-2 cells were added into 96-well half-area white plates. Serially diluted PAC1 peptides at ten concentrations were added and incubated for 30 minutes at room temperature. PAC1 agonist at EC80 concentration was then added and further incubated for 15 minutes at room temperature. The reaction was stopped by adding detection mixture to all wells followed by a 60-minute incubation at room temperature. The assay plates were read and analyzed the same way as that of agonist assay. Cells, agonists, and PAC1 peptides were prepared in freshly made assay buffer (F-12, 0.5 mM IBMX, 0.1 or 0.4% BSA (pH 7.4)). Detection mixture was made by mixing a 1/50 dilution of the Eu-cAMP tracer stock solution in cAMP Detection Buffer and a 1/150 dilution of the ULight-anti-cAMP stock solution in cAMP Detection Buffer. Europium (Eu) chelate-labeled cAMP tracer, cAMP-specific monoclonal antibodies labeled with the ULight™ dye, BSA, and detection buffer were provided in LANCE Ultra cAMP Kit from PerkinElmer

[2] = biological target: T2, human PAC1 receptor (Homo sapiens, UniProt P41586); test: LANCE Ultra cAMP accumulation antagonist assay in SHSY-5Y cells; assay type: cell-based;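 note: inhibition of cAMP accumulation evoked by PAC1 agonist at its EC80 in SHSY-5Y cells endogenously expressing receptor, 30 min preincubation then 15 min agonist, TR-FRET readout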
T2 construct: SHSY-5Y (human neuroblastoma cell line) and RG-2 (rat glioma cell line) cells endogenously express human and rat PAC1 receptors, respectively; endogenous in cells; host or cells: SHSY-5Y human neuroblastoma cells
T2 sequence (P41586 21-468): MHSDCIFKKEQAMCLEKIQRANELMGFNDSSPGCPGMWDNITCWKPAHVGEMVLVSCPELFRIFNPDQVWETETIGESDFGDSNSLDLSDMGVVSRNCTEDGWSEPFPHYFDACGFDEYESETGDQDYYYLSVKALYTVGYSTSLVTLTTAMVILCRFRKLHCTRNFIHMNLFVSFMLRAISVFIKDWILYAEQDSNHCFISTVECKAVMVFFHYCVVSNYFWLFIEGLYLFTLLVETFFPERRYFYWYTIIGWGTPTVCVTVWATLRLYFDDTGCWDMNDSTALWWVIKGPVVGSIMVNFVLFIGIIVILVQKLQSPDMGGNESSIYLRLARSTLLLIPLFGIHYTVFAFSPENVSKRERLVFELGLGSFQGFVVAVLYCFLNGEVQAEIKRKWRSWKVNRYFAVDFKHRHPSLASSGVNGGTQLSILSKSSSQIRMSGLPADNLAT

SMILES: CC[C@H](C)[C@H](NC(=O)[C@H](C)NC(=O)[C@H](CCCCN)NC(=O)[C@H](CCCNC(=N)N)NC(=O)[C@H](Cc1ccccc1)NC(=O)[C@H](CCC(N)=O)NC(=O)[C@@H]1CSSC[C@H](N)C(=O)N[C@@H](CC(=O)O)C(=O)N[C@@H](C)C(=O)N[C@@H]([C@@H](C)O)C(=O)N1)C(=O)N[C@@H](CC(=O)O)C(=O)N[C@@H](CC(=O)O)C(=O)N[C@H]1CSSC[C@@H](C(=O)N[C@@H](CCSC)C(=O)N[C@@H](CCCCN)C(=O)N[C@@H](CCC(N)=O)C(=O)N[C@@H](CCCCN)C(=O)N[C@@H](CCCCN)C(=O)N[C@@H](CCCCN)C(=O)N[C@@H](CCC(=O)O)C(=O)N[C@@H](Cc2c[nH]c3ccccc23)C(=O)N[C@@H](CCCCN)C(=O)N[C@@H](C)C(=O)NCC(N)=O)NC(=O)[C@H](C)NC(=O)[C@H](CCCCN)NC(=O)[C@H](Cc2ccccc2)NC(=O)[C@H](CO)NC(=O)[C@H](CO)NC(=O)[C@H](Cc2c[nH]cn2)NC(=O)[C@H](Cc2ccc(O)cc2)NC(=O)[C@H](C)NC(=O)[C@H](CCC(N)=O)NC(=O)[C@H](CCCNC(=N)N)NC(=O)[C@H](C)NC1=O [compound 20] (H-CDATCQFRKAIDDCARQAYHSSFKACMKQKKKEWKAG-NH2; disulfide 1-5, 14-26)
- IC50 [1]: 0.01 to 1 nM
- IC50 [2]: 0.01 to 1 nM

SMILES: CC[C@H](C)[C@H](NC(=O)[C@H](C)NC(=O)[C@H](CCCCN)NC(=O)[C@H](CCCNC(=N)N)NC(=O)[C@H](Cc1ccccc1)NC(=O)[C@H](CCC(N)=O)NC(=O)[C@@H]1CSSC[C@H](N)C(=O)N[C@@H](CC(=O)O)C(=O)N[C@@H](C)C(=O)N[C@@H]([C@@H](C)O)C(=O)N1)C(=O)N[C@@H](CC(=O)O)C(=O)N[C@@H](CC(=O)O)C(=O)N[C@H]1CSSC[C@@H](C(=O)N[C@@H](CCSC)C(=O)N[C@@H](CCCCN)C(=O)N[C@@H](CCC(N)=O)C(=O)N[C@@H](CCCCN)C(=O)N[C@@H](CCCCN)C(=O)N[C@@H](CCCCN)C(=O)N[C@@H](CCC(=O)O)C(=O)N[C@@H](Cc2c[nH]c3ccccc23)C(=O)N[C@@H](CCCCN)C(=O)N[C@@H](C)C(=O)NCC(N)=O)NC(=O)[C@H](C)NC(=O)[C@H](CCCCN)NC(=O)[C@H](Cc2ccccc2)NC(=O)[C@H](C(C)C)NC(=O)[C@H](CO)NC(=O)[C@H](CO)NC(=O)[C@H](Cc2c[nH]cn2)NC(=O)[C@H](Cc2ccc(O)cc2)NC(=O)[C@H](C)NC(=O)[C@H](CCC(N)=O)NC(=O)[C@H](CCCNC(=N)N)NC(=O)[C@H](CC(=O)O)NC1=O [compound 21] (H-CDATCQFRKAIDDCDRQAYHSSVFKACMKQKKKEWKAG-NH2; disulfide 1-5, 14-27)
- IC50 [1]: 0.01 to 1 nM
- IC50 [2]: 0.01 to 1 nM

SMILES: CC[C@H](C)[C@H](NC(=O)[C@H](C)NC(=O)[C@H](CCCCN)NC(=O)[C@H](CCCNC(=N)N)NC(=O)[C@H](Cc1ccccc1)NC(=O)[C@H](CCC(N)=O)NC(=O)[C@@H]1CSSC[C@H](N)C(=O)N[C@@H](CC(=O)O)C(=O)N[C@@H](C)C(=O)N[C@@H]([C@@H](C)O)C(=O)N1)C(=O)N[C@@H](CC(=O)O)C(=O)N[C@@H](CC(=O)O)C(=O)N[C@H]1CSSC[C@@H](C(=O)N[C@@H](CCSC)C(=O)N[C@@H](CCCCN)C(=O)N[C@@H](CCC(N)=O)C(=O)N[C@@H](CCCCN)C(=O)N[C@@H](CCCCN)C(=O)N[C@@H](CCCCN)C(=O)N[C@@H](CCC(=O)O)C(=O)N[C@@H](Cc2c[nH]c3ccccc23)C(=O)N[C@@H](CCCCN)C(=O)N[C@@H](C)C(=O)NCC(=O)N[C@@H](Cc2c[nH]cn2)C(=O)O)NC(=O)[C@H](C)NC(=O)[C@H](CCCCN)NC(=O)[C@H](Cc2ccccc2)NC(=O)[C@H](C(C)C)NC(=O)[C@H](CO)NC(=O)[C@H](CO)NC(=O)[C@H](Cc2c[nH]cn2)NC(=O)[C@H](Cc2c[nH]cn2)NC(=O)[C@H](C)NC(=O)[C@H](CCC(N)=O)NC(=O)[C@H](CCCCN)NC(=O)[C@H](C)NC1=O [compound 26] (H-CDATCQFRKAIDDCAKQAHHSSVFKACMKQKKKEWKAGH-OH; disulfide 1-5, 14-27)
- IC50 [1]: 0.01 to 1 nM
- IC50 [2]: 0.01 to 1 nM

SMILES: CC[C@H](C)[C@H](NC(=O)[C@H](C)NC(=O)[C@H](CCCCN)NC(=O)[C@H](CCCNC(=N)N)NC(=O)[C@H](Cc1ccccc1)NC(=O)[C@H](CCC(N)=O)NC(=O)[C@@H]1CSSC[C@H](N)C(=O)N[C@@H](CC(=O)O)C(=O)N[C@@H](C)C(=O)N[C@@H]([C@@H](C)O)C(=O)N1)C(=O)N[C@@H](CC(=O)O)C(=O)N[C@@H](CC(=O)O)C(=O)N[C@H]1CSSC[C@@H](C(=O)N[C@@H](CCSC)C(=O)N[C@@H](CCCCN)C(=O)N[C@@H](CCC(N)=O)C(=O)N[C@@H](CCCCN)C(=O)N[C@@H](CCCCN)C(=O)N[C@@H](CCCCN)C(=O)N[C@@H](CCC(=O)O)C(=O)N[C@@H](Cc2c[nH]c3ccccc23)C(=O)N[C@@H](CCCCN)C(=O)N[C@@H](C)C(=O)NCC(=O)N[C@@H](Cc2c[nH]cn2)C(=O)O)NC(=O)[C@H](C)NC(=O)[C@H](CCCCN)NC(=O)[C@H](Cc2ccccc2)NC(=O)[C@H](C(C)C)NC(=O)[C@H](CO)NC(=O)[C@H](CO)NC(=O)[C@H](Cc2c[nH]cn2)NC(=O)[C@H](Cc2ccc(O)cc2)NC(=O)[C@H](C)NC(=O)[C@H](CCC(N)=O)NC(=O)[C@H](CCCNC(=N)N)NC(=O)[C@H](C)NC1=O [compound 27] (H-CDATCQFRKAIDDCARQAYHSSVFKACMKQKKKEWKAGH-OH; disulfide 1-5, 14-27)
- IC50 [1]: 0.01 to 1 nM
- IC50 [2]: 0.01 to 1 nM

SMILES: CC[C@H](C)[C@H](NC(=O)[C@H](C)NC(=O)[C@H](CCCCN)NC(=O)[C@H](CCCNC(=N)N)NC(=O)[C@H](Cc1ccccc1)NC(=O)[C@H](CCC(N)=O)NC(=O)[C@@H]1CSSC[C@H](N)C(=O)N[C@@H](CC(=O)O)C(=O)N[C@@H](C)C(=O)N[C@@H]([C@@H](C)O)C(=O)N1)C(=O)N[C@@H](CC(=O)O)C(=O)N[C@@H](CC(=O)O)C(=O)N[C@H]1CSSC[C@@H](C(=O)N[C@@H](CCSC)C(=O)N[C@@H](CCCCN)C(=O)N[C@@H](CCC(N)=O)C(=O)N[C@@H](CCCCN)C(=O)N[C@@H](CCCCN)C(=O)N[C@@H](CCCCN)C(=O)N[C@@H](CCC(=O)O)C(=O)N[C@@H](Cc2c[nH]c3ccccc23)C(=O)N[C@@H](CCCCN)C(=O)N[C@@H](C)C(=O)NCC(=O)N[C@@H](Cc2c[nH]cn2)C(=O)O)NC(=O)[C@H](C)NC(=O)[C@H](CCCCN)NC(=O)[C@H](Cc2ccccc2)NC(=O)[C@H](C(C)C)NC(=O)[C@H](CO)NC(=O)[C@H](CO)NC(=O)[C@H](Cc2c[nH]cn2)NC(=O)[C@H](Cc2c[nH]cn2)NC(=O)[C@H](C)NC(=O)[C@H](CCC(N)=O)NC(=O)[C@H](CCCNC(=N)N)NC(=O)[C@H](C)NC1=O [compound 28] (H-CDATCQFRKAIDDCARQAHHSSVFKACMKQKKKEWKAGH-OH; disulfide 1-5, 14-27)
- IC50 [1]: 0.01 to 1 nM
- IC50 [2]: 0.01 to 1 nM

SMILES: CC[C@H](C)[C@H](NC(=O)[C@H](C)NC(=O)[C@H](CCCCN)NC(=O)[C@H](CCCNC(=N)N)NC(=O)[C@H](Cc1ccccc1)NC(=O)[C@H](CCC(N)=O)NC(=O)[C@@H]1CSSC[C@H](N)C(=O)N[C@@H](CC(=O)O)C(=O)N[C@@H](C)C(=O)N[C@@H]([C@@H](C)O)C(=O)N1)C(=O)N[C@@H](CC(=O)O)C(=O)N[C@@H](CC(=O)O)C(=O)N[C@H]1CSSC[C@@H](C(=O)N[C@@H](CCSC)C(=O)N[C@@H](CCCCN)C(=O)N[C@@H](CCC(N)=O)C(=O)N[C@@H](CCCCN)C(=O)N[C@@H](CCCCN)C(=O)N[C@@H](CCCCN)C(=O)N[C@@H](CCC(=O)O)C(=O)N[C@@H](Cc2ccccc2)C(=O)N[C@@H](CCCCN)C(=O)N[C@@H](C)C(=O)NCC(=O)N[C@@H](Cc2ccc(O)cc2)C(=O)O)NC(=O)[C@H](C)NC(=O)[C@H](CCCCN)NC(=O)[C@H](Cc2ccccc2)NC(=O)[C@H](C(C)C)NC(=O)[C@H](CO)NC(=O)[C@H](CO)NC(=O)[C@H](Cc2c[nH]cn2)NC(=O)[C@H](Cc2c[nH]cn2)NC(=O)[C@H](C)NC(=O)[C@H](CCC(N)=O)NC(=O)[C@H](CCCCN)NC(=O)[C@H](C)NC1=O [compound 29] (H-CDATCQFRKAIDDCAKQAHHSSVFKACMKQKKKEFKAGY-OH; disulfide 1-5, 14-27)
- IC50 [1]: 0.01 to 1 nM
- IC50 [2]: 0.01 to 1 nM
